Series [1] in a line: Quenching activity towards HNE (residual HNE by HPLC-UV). To be noted: for HNE Quenching (%) 1 h: percentage of quenched HNE at 1 h; for HNE Quenching (%) 2 h: percentage of quenched HNE at 2 h; for HNE Quenching (%) 3 h: percentage of quenched HNE at 3 h. On the procedure:
The reactivity towards HNE was tested for each peptide separately, by monitoring within 3 h from the incubation the residual HNE via HPLC-UV, as previously reported. Minor modifications of the method were implemented. A Kinetex C18 column (25 mm × 2.10 mm, particle size 2.6 µm, pore size 100 Å, Phenomenex, Castel Maggiore, Italy) was used instead and the elution of residual HNE was provided at 40 °C by 300 µL/min flow rate of aqueous ammonium acetate (10 mM) containing 20% acetonitrile. For active compounds, the formation of HNE adduct was confirmed by mass spectrometry. Samples were diluted in ACN/H2O/formic acid, 50/50/0.1, v/v/v solution down to a suitable concentration and pumped at 5 µL/min directly into ESI capillary (Finnigan Ion Max, Thermo Fisher Scientific, Rodano, Italy) and 3.5 kV voltage, 270 °C capillary temperature, 35 V capillary voltage and 50 V tube lens were applied to ensure sample nebulization. Spectra were acquired in positive ion mode for 5 × 10^5 ions per scan, by using a LTQ-Orbitrap XL-ETD analyzer (Thermo Fisher Scientific, Rodano, Italy) operating in a 150–700 m/z scan range at a resolution of (FWHM at m/z 400).

The nature of series [2]: Serum stability (LC-MS, MRM). The format is in vitro ADME, human. The note with it: 37 °C; for half-life at 5 µM: human, read-out: Serum Stability t1/2. The method, then: (§1) Serum stability was measured as previously described. Briefly, analytes were spiked separately in pre-heated (37 °C) serum aliquots down to a final concentration of 5 µM. The residual concentration of analyte was measured at the beginning and after 5, 15, 30, 60 and 120 min by means of LC-MS. Prior to analyses, hydrolysis was blocked at the desired time points diluting with 9 volumes of acetonitrile at 4 °C to provide protein precipitation. The analyte residual concentration was then measured in the supernatants obtained upon centrifugation. The same method was also used to evaluate the inhibition effect of CHP by incubating serum samples with equimolar amounts of carnosine and CHP.

The target of series [3] is T1, human serum carnosinase (hCN1) (Homo sapiens, UniProt Q96KN2).
T1 construct: from tissue; host or cells: serum
T1 sequence (Q96KN2 26-507): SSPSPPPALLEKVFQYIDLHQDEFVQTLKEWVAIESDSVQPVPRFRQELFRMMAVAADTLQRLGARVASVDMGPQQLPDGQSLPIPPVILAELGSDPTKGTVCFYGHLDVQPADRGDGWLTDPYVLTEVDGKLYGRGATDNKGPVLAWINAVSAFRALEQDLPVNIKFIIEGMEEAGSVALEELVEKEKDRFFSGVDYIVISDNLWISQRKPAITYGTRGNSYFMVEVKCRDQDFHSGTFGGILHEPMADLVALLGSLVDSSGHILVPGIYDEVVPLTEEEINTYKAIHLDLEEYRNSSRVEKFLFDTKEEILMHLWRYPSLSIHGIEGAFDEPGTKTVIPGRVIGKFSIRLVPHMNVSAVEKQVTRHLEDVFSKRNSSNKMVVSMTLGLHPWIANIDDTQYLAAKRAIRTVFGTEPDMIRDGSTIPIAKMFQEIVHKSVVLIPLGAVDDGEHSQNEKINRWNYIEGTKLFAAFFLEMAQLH
Put plainly: Inhibition effect of CHP on serum carnosinase (carnosine hydrolysis in serum). Format: biochemical. The note with it: serum incubated with equimolar carnosine and CHP; decrease not statistically significant. The method, then:
as §1

On the set-up of series [4]: method as in PMID 1424308. To be noted: cited from earlier work.

Counter-ions that a name gives are not always drawn.

For the compound `NC(Cc1cnc[nH]1)C(=O)N1CCCC1C(=O)O` (centres unmarked) [HisPro, His-Pro], in series [1], the “HNE Quenching (%) 1 h” value is given as −0.33 ± 0.45%, the “HNE Quenching (%) 2 h” value is reported as −0.26 ± 0.53% and the “HNE Quenching (%) 3 h” value is listed as 3.54 ± 1.66%. Moreover, in series [2], the half-life at 5 µM is 3.08 min.
With `O=C1NC(Cc2cnc[nH]2)C(=O)N2CCCC12` (centres unmarked) [CHP, Cyclo(His-Pro)], in series [1], the “HNE Quenching (%) 1 h” value turned out to be 2.42 ± 0.71%, the “HNE Quenching (%) 2 h” value turned out to be 5.46 ± 0.78% and the “HNE Quenching (%) 3 h” value came to 8.09 ± 0.77%. Moreover, in series [2] (5 µM), the “Serum Stability t1/2 (min)” value is reported as “Stable”. Moreover, the “retained carnosine hydrolytic activity” value in series [3] is listed as 85 ± 5%.
Take `NC(=O)[C@@H]1CCCN1C(=O)[C@H](Cc1cnc[nH]1)NC(=O)[C@@H]1CCC(=O)N1` [TRH, thyrotropin-releasing hormone, reference compound]: in series [1], the “HNE Quenching (%) 1 h” value was 2.31 ± 6.72%, the “HNE Quenching (%) 2 h” value amounted to 4.16 ± 6.16% and the “HNE Quenching (%) 3 h” value was 6.17 ± 6.41%. Besides, the half-life at 5 µM in series [2] worked out at 24.4 min. Besides, in series [4], the half-life in vivo is listed as 6.5 min.
Turning to `O=C(O)C(Cc1c[nH]cn1)NC(=O)C1CCCN1` [ProHis, L-Pro-L-His-OH dihydrochloride], in series [1], the “HNE Quenching (%) 1 h” value worked out at 20.39 ± 1.14%, the “HNE Quenching (%) 2 h” value came out at 36.94 ± 0.80% and the “HNE Quenching (%) 3 h” value stood at 49.87 ± 1.06%. Besides, the half-life at 5 µM in series [2] turned out to be 33.4 min.
With `NCCC(=O)N[C@@H](Cc1cnc[nH]1)C(=O)O` [L-carnosine, reference compound], in series [1], the “HNE Quenching (%) 1 h” value was found to be 17.04 ± 6.17%, the “HNE Quenching (%) 2 h” value came to 29.05 ± 4.33% and the “HNE Quenching (%) 3 h” value is 40.40 ±3.73%. Moreover, the half-life at 5 µM in series [2] was 1.17 min.
`NC(=O)C(Cc1c[nH]cn1)NC(=O)C1CCCN1` [ProHis-NH2, L-Pro-L-His-NH2]: in series [1], the “HNE Quenching (%) 1 h” value was found to be 17.08 ± 1.11%, the “HNE Quenching (%) 2 h” value is 27.66 ± 0.58% and the “HNE Quenching (%) 3 h” value came out at 36.29 ± 1.08%. Further, the half-life at 5 µM in series [2] amounted to 128 min.

Source of the values: PMC9103439, “Cyclo(His-Pro) Exerts Protective Carbonyl Quenching Effects through Its Open Histidine Containing Dipeptides” (Nutrients, 2022).
